Measurements taken from US8404442B2, “Methods for identification of bone anabolic agents” (New York University, priority 2009, dated 2013).

Experiments:
[1] = tested on: Sox2-depleted osteoblasts; assay: Rescue of colony forming ability of Sox2-depleted osteoblasts; format: cell-based, mouse; conditions: 10 μM SB431542
Experimental: For colony formation assay, 0.1×10^6 cells were plated per well in a cluster-6 well plate for 24 hours. The next day, the cells were infected with a retrovirus either encoding eGFP (MSCV-eGFP) or CRE (MSCV-CRE-eGFP) at an MOI of 10, in the presence of 8 μg/ml polybrene. Twenty-four (24) hours after infection, fresh medium was added to the plate and the cells were incubated for an additional 48 hours (72 hours total from the start of infection). The infected cells were then trypsinized and re-plated at a density of 1000 cells/well in a cluster-6 well plate. The plated were incubated for 7-10 days. Green colonies were visualized and counted under a fluorescence microscope. Colonies were fixed in 20% methanol for 15 minutes at room temperature, and counted after staining with 0.5% crystal violet in 20% methanol. We have developed a 96-well format, cell-based screen using two Sox2 foxed cell lines (F/F and F/-). […] The CellTiter-Blue® Cell Viability Assay is a fluorescence-based assay for measuring cell viability, and has an excellent Z′ factor^1. […] After one hour of incubation with the reagent, fluorescence was read using a Wallac Plate Reader (Perkinelmer, Waltham, Mass.). Z′ factor and z score for each plate was calculated for each cell line at different cell plating concentrations as described (28, 29). […]

[2] = tested on: iPSCs; conditions: refs (7,32); cited from earlier work

NC(=O)c1ccc(-c2nc(-c3ccc4c(c3)OCO4)c(-c3ccccn3)[nH]2)cc1 [SB431542]
rescue of loss of colony forming ability [1]: able to rescue to loss of colony forming ability | bypass of the requirement of Sox2 in reprogramming [2]: bypass the requirement of Sox2 in the reprogramming of iPSCs
